System: Plasmodium berghei
Test: Luciferase/luciferin-expressing antifolate-resistant parasites were used to infect a culture of HepG2 cells that were pre-incubated with compounds. Infected hepatocytes emit light due to the luciferase reaction. Assay results are presented as the percent inhibition of light emission compared to control. […]
Assay type: functional
Conditions: sporozoite; for IC90: read-out: LUCIFERASE INFECTION ASSAY - IC90

| SMILES | IC90 [µM] | also measured |
| --- | --- | --- |
| Cc1cc(N)c(N)cc1C | 6.18 | IC50 (PBLUC_HILL_SLOPE 0.927, PBLUC_R_SQUARED 0.706, read-out: LUCIFERASE INFECTION ASSAY - IC50): 577 nM |
| O=C(Nc1ncccc1O)c1ccc(S(=O)(=O)NCc2ccco2)cc1 | > 10 | IC50 (PBLUC_HILL_SLOPE 0.839, PBLUC_R_SQUARED 0.334, read-out: LUCIFERASE INFECTION ASSAY - IC50): 1040 nM |
| Cc1cc(C)nc(-n2[nH]c(C)c(Cc3ccc(C(C)(C)C)cc3)c2=O)n1 | > 9.42 | IC50 (PBLUC_HILL_SLOPE 0.924, PBLUC_R_SQUARED 0.378, read-out: LUCIFERASE INFECTION ASSAY - IC50): 1030 nM |
| Cc1noc(C)c1S(=O)(=O)N(Cc1ccc(C(=O)NC2CC2)cc1)C1CC1 | 3.5 | IC50 (PBLUC_HILL_SLOPE 0.781, PBLUC_R_SQUARED 0.696, read-out: LUCIFERASE INFECTION ASSAY - IC50): 210 nM |
| O/N=C1\CC(c2ccccc2)Sc2ccccc21 (configuration not stated) | > 12.9 | IC50 (PBLUC_HILL_SLOPE 0.783, PBLUC_R_SQUARED 0.658, read-out: LUCIFERASE INFECTION ASSAY - IC50): 3880 nM |
| O=C(Nc1nc2ccc(Oc3ccccc3)cc2s1)C1=COCCO1 | > 10 | IC50 (PBLUC_HILL_SLOPE 0.789, PBLUC_R_SQUARED 0.599, read-out: LUCIFERASE INFECTION ASSAY - IC50): 5280 nM |
| CN(C)c1ccc(C(c2ccc(N(C)C)cc2)c2ccc(Cl)c(Cl)c2)cc1 | > 8.26 | IC50 (PBLUC_HILL_SLOPE 0.805, PBLUC_R_SQUARED 0.379, read-out: LUCIFERASE INFECTION ASSAY - IC50): 3910 nM |
| CC(=O)N1CCc2cc(S(=O)(=O)Nc3ccc(Cl)cc3)ccc21 | > 9.41 | IC50 (PBLUC_HILL_SLOPE 0.924, PBLUC_R_SQUARED 0.105, read-out: LUCIFERASE INFECTION ASSAY - IC50): > 9410 nM |
| Cc1c(C)n(CCCN(C)C)c2ncn3nc(COc4ccccc4)nc3c12 | > 8.72 | IC50 (PBLUC_HILL_SLOPE 0.81, PBLUC_R_SQUARED 0.755, read-out: LUCIFERASE INFECTION ASSAY - IC50): 821 nM |
| O=[N+]([O-])c1cc(/C=C/c2nc3ccccc3s2)ccc1N1CCOCC1 | > 10 | IC50 (PBLUC_HILL_SLOPE 0.872, PBLUC_R_SQUARED 0.699, read-out: LUCIFERASE INFECTION ASSAY - IC50): 1400 nM |
| Cc1cc(N2CCN(C)CC2)n2ncc(-c3ccccc3Cl)c2n1 | > 9.65 | IC50 (PBLUC_HILL_SLOPE 0.809, PBLUC_R_SQUARED 0.766, read-out: LUCIFERASE INFECTION ASSAY - IC50): 1460 nM |
| c1ccc2sc(-c3nc4ccccc4s3)nc2c1 | > 10 | IC50 (PBLUC_HILL_SLOPE 0.811, PBLUC_R_SQUARED 0.754, read-out: LUCIFERASE INFECTION ASSAY - IC50): 1160 nM |
| Cc1ccc[n+](CC(=O)c2ccc3c(c2)Cc2ccccc2-3)c1C | > 8.37 | IC50 (PBLUC_HILL_SLOPE 0.83, PBLUC_R_SQUARED 0.466, read-out: LUCIFERASE INFECTION ASSAY - IC50): > 8370 nM |
| CCC(C)(C)c1ccc(Oc2ccc(NC(=O)COC(=O)c3cc(-c4cc(OC)c(OC)c(OC)c4)nc4ccccc34)cc2)cc1 | > 10 | IC50 (PBLUC_HILL_SLOPE 0.863, PBLUC_R_SQUARED 0.508, read-out: LUCIFERASE INFECTION ASSAY - IC50): 2170 nM |
| CCCOc1ccc(C(F)(F)F)cc1NC(=O)c1nc2nccc(C)n2n1 | 3 | IC50 (PBLUC_HILL_SLOPE 0.895, PBLUC_R_SQUARED 0.844, read-out: LUCIFERASE INFECTION ASSAY - IC50): 258 nM |
| CN(C)CCNc1ccnc2c(-c3ccc4ccccc4c3)cnn12 | > 9.96 | IC50 (PBLUC_HILL_SLOPE 0.931, PBLUC_R_SQUARED 0.843, read-out: LUCIFERASE INFECTION ASSAY - IC50): 1060 nM |
| COc1cccc(-c2nc3ccc(NC(=O)CC(C)(C)C)cn3n2)c1 | > 10 | IC50 (PBLUC_HILL_SLOPE 0.895, PBLUC_R_SQUARED 0.614, read-out: LUCIFERASE INFECTION ASSAY - IC50): 974 nM |
| COc1cccc(Nc2nccc3c2cc(-c2cccc(OC)c2)n3C)c1 | > 10 | IC50 (PBLUC_HILL_SLOPE 0.902, PBLUC_R_SQUARED 0.605, read-out: LUCIFERASE INFECTION ASSAY - IC50): 2590 nM |
| COc1cccc(NC(=O)c2cc(C)n(Cc3cccs3)c2C)c1 | > 9.69 | IC50 (PBLUC_HILL_SLOPE 0.906, PBLUC_R_SQUARED 0.33, read-out: LUCIFERASE INFECTION ASSAY - IC50): 6440 nM |
| C=CCSc1nnc(-c2ccc(C(C)(C)C)cc2)n1-c1ccc(Cl)cc1 | > 8.59 | IC50 (PBLUC_HILL_SLOPE 0.788, PBLUC_R_SQUARED 0.735, read-out: LUCIFERASE INFECTION ASSAY - IC50): > 8590 nM |
| OC(c1cn2cc(-c3ccc(F)cc3)nc2s1)(C(F)(F)F)C(F)(F)F | 6.57 | IC50 (PBLUC_HILL_SLOPE 0.791, PBLUC_R_SQUARED 0.914, read-out: LUCIFERASE INFECTION ASSAY - IC50): 408 nM |

| SMILES | IC90 [µM] | also measured |
| --- | --- | --- |
| CCc1cccc2c(/C=C(\C#N)C(=O)C(C)(C)C)c[nH]c12 | > 10 | IC50 (PBLUC_HILL_SLOPE 0.872, PBLUC_R_SQUARED 0.606, read-out: LUCIFERASE INFECTION ASSAY - IC50): 6240 nM |
| Clc1ccc(/C=C/c2cnc3ccccc3n2)cc1 | > 12.4 | IC50 (PBLUC_HILL_SLOPE 0.854, PBLUC_R_SQUARED 0.483, read-out: LUCIFERASE INFECTION ASSAY - IC50): 2040 nM |
| COc1cccc(/C=N/NC(=O)C2CCCN(C(=S)NNC3CC4C=CC3C4)CC2)c1O (configuration not stated) | > 7.21 | IC50 (PBLUC_HILL_SLOPE 0.853, PBLUC_R_SQUARED 0.602, read-out: LUCIFERASE INFECTION ASSAY - IC50): 1470 nM |
| Cc1ccc(NC(=O)c2cc3c(s2)CCCCCC3)nc1 | 5.93 | IC50 (PBLUC_HILL_SLOPE 0.925, PBLUC_R_SQUARED 0.636, read-out: LUCIFERASE INFECTION ASSAY - IC50): 551 nM |
| CC(C)Cc1ccc(C(C)NC(=O)c2ccc(CN3CCCC3)cc2)cc1 (configuration not stated) | > 10 | IC50 (PBLUC_HILL_SLOPE 0.907, PBLUC_R_SQUARED 0.512, read-out: LUCIFERASE INFECTION ASSAY - IC50): 2160 nM |
| Cc1ccc(/C=C2\CCc3c2nc2ccccc2c3C(=O)OCc2cccc(S(=O)(=O)N(C)C)c2)cc1 | > 10 | IC50 (PBLUC_HILL_SLOPE 0.892, PBLUC_R_SQUARED 0.634, read-out: LUCIFERASE INFECTION ASSAY - IC50): 1200 nM |
| CN1CCN(c2ccc(NC(=O)c3csc4c3CCCC4)cc2)CC1 | 4.98 | IC50 (PBLUC_HILL_SLOPE 0.882, PBLUC_R_SQUARED 0.629, read-out: LUCIFERASE INFECTION ASSAY - IC50): 413 nM |
| CCc1c(C(=O)Nc2ccn(CCc3ccccn3)n2)cnn1C(C)(C)C | 2.23 | IC50 (PBLUC_HILL_SLOPE 0.847, PBLUC_R_SQUARED 0.391, read-out: LUCIFERASE INFECTION ASSAY - IC50): 166 nM |
| CC(C)(C)c1ccc(C(=O)Nc2cc(F)ccc2F)s1 | 0.55 | IC50 (PBLUC_HILL_SLOPE 0.906, PBLUC_R_SQUARED 0.913, read-out: LUCIFERASE INFECTION ASSAY - IC50): 48.7 nM |
| Cc1cc(C(=O)NCCSc2ccccc2)c(C)n1C(C)C | 6.44 | IC50 (PBLUC_HILL_SLOPE 0.93, PBLUC_R_SQUARED 0.762, read-out: LUCIFERASE INFECTION ASSAY - IC50): 607 nM |
| O=C(Nc1ccc(Cl)c(Cl)c1)Nc1ccnn1C1CCCCC1 | > 10 | IC50 (PBLUC_HILL_SLOPE 0.873, PBLUC_R_SQUARED 0.34, read-out: LUCIFERASE INFECTION ASSAY - IC50): > 10000 nM |
| O=C(NC1CCN(c2nccc(C(F)(F)F)n2)CC1)c1ccco1 | > 9.7 | IC50 (PBLUC_HILL_SLOPE 0.897, PBLUC_R_SQUARED 0.83, read-out: LUCIFERASE INFECTION ASSAY - IC50): 2600 nM |
| Cc1ccc2c(c1)C1CN(C)CCC1N2C(=O)c1cc2c(s1)CCCC2 (configuration not stated) | > 10 | IC50 (PBLUC_HILL_SLOPE 0.917, 1.13, PBLUC_R_SQUARED 0.241, 0.572, read-out: LUCIFERASE INFECTION ASSAY - IC50): 2930 nM |
| Cc1ccsc1CN(C)C(C)C(=O)Nc1cc(C(F)(F)F)ccc1N1CCOCC1 (configuration not stated) | > 10 | IC50 (PBLUC_HILL_SLOPE 0.840, 16.2, PBLUC_R_SQUARED 0.288, 0.265, read-out: LUCIFERASE INFECTION ASSAY - IC50): > 10000 nM |
| Cc1cc(C(=O)C(C)Sc2nnnn2C2CC2)c(C)n1-c1ccccc1 (configuration not stated) | 7.24 | IC50 (PBLUC_HILL_SLOPE 0.896, PBLUC_R_SQUARED 0.762, read-out: LUCIFERASE INFECTION ASSAY - IC50): 623 nM |
| CC(C)(C)c1ccc(NC(=O)c2ccc[nH]c2=S)cc1 | 0.656 | IC50 (PBLUC_HILL_SLOPE 0.943, PBLUC_R_SQUARED 0.946, read-out: LUCIFERASE INFECTION ASSAY - IC50): 63.8 nM |
| CCOC(=O)CSCc1noc(COc2ccc(Cl)cc2Cl)n1 | 0.26 | IC50 (PBLUC_HILL_SLOPE 0.923, PBLUC_R_SQUARED 0.877, read-out: LUCIFERASE INFECTION ASSAY - IC50): 24.1 nM |
| Cc1ccc(S(=O)(=O)Oc2cc(C)ccc2C)cc1 | > 11.9 | IC50 (PBLUC_HILL_SLOPE 0.836, PBLUC_R_SQUARED 0.347, read-out: LUCIFERASE INFECTION ASSAY - IC50): 4270 nM |
| CN(Cc1nc2ccccc2s1)Cn1cnc2c(=O)n(C)c(=O)n(C)c21 | > 10 | IC50 (PBLUC_HILL_SLOPE 0.862, PBLUC_R_SQUARED 0.121, read-out: LUCIFERASE INFECTION ASSAY - IC50): 9690 nM |
| c1ccc(CNCc2cn(-c3ccccc3)nc2-c2ccncc2)cc1 | > 8.76 | IC50 (PBLUC_HILL_SLOPE 0.853, PBLUC_R_SQUARED 0.208, read-out: LUCIFERASE INFECTION ASSAY - IC50): > 8760 nM |

Source: ChEMBL document CHEMBL4483862, “Open-source discovery of chemical leads for next-generation chemoprotective antimalarials” (2018)
